The values that follow come from paper PMC3079577 (Nature, 2010).

Assay [1] deals with LeuT^K (Lys 288 Ala LeuT) (Aquifex aeolicus, UniProt O67854, K288A).
For assay [2], the target named is T1, Tyr 108 Phe–LeuT^K (Aquifex aeolicus, UniProt O67854, K288A/Y108F). Description: Equilibrium dialysis, [3H]Leu binding to Tyr 108 Phe mutant. The note with it: single-site fit, 23 °C, 6 h, listed as [^3H]Leu. For orientation: In equilibrium dialysis only unbound substance equilibrates across the membrane.
Assay [3] deals with T1, Tyr 108 Phe–LeuT^K. The experiment in a line: Isothermal titration calorimetry, Leu binding to Tyr 108 Phe mutant. The note with it: ITC, 25 °C, pH 7.0. A general note: Isothermal titration calorimetry measures the heat released or taken up as one component is titrated into another.
The next assay deals with LeuT Leu 400 Ala mutant (Aquifex aeolicus, UniProt O67854, L400A). Description: Scintillation proximity assay, [3H]Leu binding to Leu 400 Ala mutant. To be noted: SPA, 400 nM protein, Fig 2b; listed as [^3H]Leu.
Assay [4] has as its target T2, wild-type LeuT (Aquifex aeolicus, UniProt O67854). Description: Isothermal titration calorimetry, Leu binding to wild-type LeuT. The note with it: ITC, 25 °C, pH 7.0.
The next assay has as its target LeuT Leu 400 Cys mutant (Aquifex aeolicus, UniProt O67854, L400C). The experiment in a line: Scintillation proximity assay, [3H]Leu binding to Leu 400 Cys mutant. The note with it: SPA, 400 nM protein, Fig 2b; listed as [^3H]Leu. (In general: In a scintillation proximity assay essentially only radioactivity close to the scintillant gives light.)
Assay [5] addresses T2, wild-type LeuT. The experiment in a line: Equilibrium dialysis, [3H]Leu binding to wild-type LeuT. To be noted: single-site fit, 23 °C, 6 h, listed as [^3H]Leu.
The target of assay [6] is T2, wild-type LeuT. Description: Scintillation proximity assay, [3H]Leu binding to wild-type LeuT. To be noted: SPA.
Another assay concerns LeuT. To be noted: cited from earlier work.
Where [7] appears, read: two-site, ordered-binding model fit, parameters not well fitted.

Structures are written as SMILES.

What is called Km is the substrate concentration at which the rate is half of its maximum.

For the compound `C[C@H](N)C(=O)O` [Ala, alanine], in assay [1] (read-out: Km (Michaelis constant), pH 5, 200 mM inward Na+ gradient, 27 °C, no valinomycin), the Km came out at 0.79 ± 0.06 µM. Moreover, the “Hill slope nH” value in assay [1] (steady-state data fitted to the Hill equation) stood at 0.96±0.03. For the same compound, the Vmax in assay [1] (two-site, ordered-binding model fit) is 10,965±308 pmol min^−1 mg^−1. Further, in assay [1] (setting [7]), the “apparent dissociation constant KS” value amounted to 6.8 ± 22 nM and the “dissociation coefficient α” value is 114±360.

Take `CC(C)C[C@H](N)C(=O)O` [Leu, L-leucine]: the Stoichiometry at Tyr 108 Phe–LeuT^K [2] is given as 0.72±0.02 mol/mol LeuT; on LeuT Leu 400 Ala mutant it was “about 0.8 mol/mol LeuT”; on LeuT Leu 400 Cys mutant it was “about 0.8 mol/mol LeuT”; at wild-type LeuT [5], 0.73±0.03 mol/mol LeuT; at wild-type LeuT [6] (400 nM LeuT (~20 Kd), 25–1,200 nM [3H]Leu, Fig 2b), “about 0.8 mol/mol LeuT”. Further, the ΔH of binding at Tyr 108 Phe–LeuT^K [3] was -8.03 ± 0.13 kJ/mol; at wild-type LeuT [4], -16.4 ± 0.084 kJ/mol. Also, the “Stoichiometry N” value on Tyr 108 Phe–LeuT^K [3] (single-site model) is recorded as 0.79±0.01 mol/mol LeuT. Further, the “−TΔS of binding” value at wild-type LeuT [4] was -25.1 ± 0.544 kJ/mol. Besides, at wild-type LeuT [4] (single-site model), the “Stoichiometry N (substrate-to-LeuT)” value is reported as 0.70±0.01 mol/mol LeuT.

`CN(C)CCCN1c2ccccc2CCc2ccc(Cl)cc21` [clomipramine]: the “Mode of inhibition of LeuT transport” value in the assay on LeuT is reported as “non-competitive inhibitor”. Further, the “Effect of clomipramine on binding of Leu to wild-type LeuT” value at wild-type LeuT [6] (10 nM LeuT, 1 mM clomipramine) is listed as “no change”.
